Laboratory results from PubChem BioAssay (NCI).
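Interpolation was linear, between the two tested concentrations surrounding the appropriate level; five concentrations were tested over 48 hours in 96-well plates. TGI denotes the concentration required for complete inhibition of growth.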

How the values were obtained:
Assay in all cases: inhibition of tumour cell growth, NCI panel, 48 h
786-0 renal = tested on: 786-0 renal
A498 renal = tested on: A498 renal
A549 NSCLC = tested on: A549 NSCLC
ACHN renal = tested on: ACHN renal
BT-549 breast = tested on: BT-549 breast
CCRF-CEM leukemia = tested on: CCRF-CEM leukemia
COLO 205 colon = tested on: COLO 205 colon
DU-145 prostate = tested on: DU-145 prostate
EKVX NSCLC = tested on: EKVX NSCLC
HCT-116 colon = tested on: HCT-116 colon
HCT-15 colon = tested on: HCT-15 colon
HL-60(TB) leukemia = tested on: HL-60(TB) leukemia
HOP-62 NSCLC = tested on: HOP-62 NSCLC
HOP-92 NSCLC = tested on: HOP-92 NSCLC
HS 578T breast = tested on: HS 578T breast
HT29 colon = tested on: HT29 colon
IGROV1 ovarian = tested on: IGROV1 ovarian
K-562 leukemia = tested on: K-562 leukemia
KM12 colon = tested on: KM12 colon
LOX IMVI melanoma = tested on: LOX IMVI melanoma
M14 melanoma = tested on: M14 melanoma
MALME-3M melanoma = tested on: MALME-3M melanoma
MCF7 breast = tested on: MCF7 breast
MDA-MB-231 breast = tested on: MDA-MB-231 breast
MDA-MB-435 = tested on: MDA-MB-435
MDA-N = tested on: MDA-N
MOLT-4 leukemia = tested on: MOLT-4 leukemia
NCI-H226 lung = tested on: NCI-H226 lung
NCI-H23 lung = tested on: NCI-H23 lung
NCI-H460 lung = tested on: NCI-H460 lung
NCI/ADR-RES ovarian = tested on: NCI/ADR-RES ovarian
OVCAR-3 ovarian = tested on: OVCAR-3 ovarian
OVCAR-4 ovarian = tested on: OVCAR-4 ovarian
OVCAR-5 ovarian = tested on: OVCAR-5 ovarian
OVCAR-8 ovarian = tested on: OVCAR-8 ovarian
PC-3 prostate = tested on: PC-3 prostate
RPMI-8226 leukemia = tested on: RPMI-8226 leukemia
RXF 393 renal = tested on: RXF 393 renal
SF-268 CNS = tested on: SF-268 CNS
SF-295 CNS = tested on: SF-295 CNS
SF-539 CNS = tested on: SF-539 CNS
SK-MEL-2 melanoma = tested on: SK-MEL-2 melanoma
SK-MEL-28 melanoma = tested on: SK-MEL-28 melanoma
SK-MEL-5 melanoma = tested on: SK-MEL-5 melanoma
SK-OV-3 ovarian = tested on: SK-OV-3 ovarian
SN12C renal = tested on: SN12C renal
SNB-19 CNS = tested on: SNB-19 CNS
SNB-75 CNS = tested on: SNB-75 CNS
SR leukemia = tested on: SR leukemia
SW-620 colon = tested on: SW-620 colon
T-47D breast = tested on: T-47D breast
TK-10 renal = tested on: TK-10 renal
U251 CNS = tested on: U251 CNS
UACC-257 melanoma = tested on: UACC-257 melanoma
UACC-62 melanoma = tested on: UACC-62 melanoma
UO-31 renal = tested on: UO-31 renal

Measured: TGI

CCOC(=O)C(Cl)(Cl)/S(=N\S(=O)(=O)c1ccccc1)NC(=O)c1ccccc1 (stereo unspecified)
> 100 µM: 786-0 renal | A498 renal | A549 NSCLC | ACHN renal | BT-549 breast | CCRF-CEM leukemia | COLO 205 colon | DU-145 prostate | EKVX NSCLC | HCT-116 colon | HCT-15 colon | HL-60(TB) leukemia | HOP-62 NSCLC | HOP-92 NSCLC | HS 578T breast | HT29 colon | IGROV1 ovarian | K-562 leukemia | KM12 colon | LOX IMVI melanoma | M14 melanoma | MALME-3M melanoma | MCF7 breast | MDA-MB-231 breast | MDA-MB-435 | MDA-N | MOLT-4 leukemia | NCI-H226 lung | NCI-H23 lung | NCI-H460 lung | NCI/ADR-RES ovarian | OVCAR-3 ovarian | OVCAR-4 ovarian | OVCAR-5 ovarian | OVCAR-8 ovarian | PC-3 prostate | RPMI-8226 leukemia | RXF 393 renal | SF-268 CNS | SF-295 CNS | SF-539 CNS | SK-MEL-2 melanoma | SK-MEL-28 melanoma | SK-MEL-5 melanoma | SK-OV-3 ovarian | SN12C renal | SNB-19 CNS | SNB-75 CNS | SR leukemia | SW-620 colon | T-47D breast | TK-10 renal | U251 CNS | UACC-257 melanoma | UACC-62 melanoma | UO-31 renal
